Assay results reported in ChEMBL document CHEMBL4819062, “Novel iodinated quinazolinones bearing sulfonamide as new scaffold targeting radiation induced oxidative stress” (Bioorg Med Chem Lett, 2021).
Blank lines part the entries; values can stand above or below the compound they belong to. Active and inactive are the calls of the source. The calls are words filed in the database; no cut-off is given here.

Assays:
[1] = molecular target: T1, Nuclear factor erythroid 2-related factor 2 (Mus musculus) (UniProt Q60795); test: Activation of Nrf2 in mouse Hepa1c1c7 cells assessed as increase in NQO1 activity at 0.625 uM; type: cell-based; details: filed as activator
T1 sequence (whole entry): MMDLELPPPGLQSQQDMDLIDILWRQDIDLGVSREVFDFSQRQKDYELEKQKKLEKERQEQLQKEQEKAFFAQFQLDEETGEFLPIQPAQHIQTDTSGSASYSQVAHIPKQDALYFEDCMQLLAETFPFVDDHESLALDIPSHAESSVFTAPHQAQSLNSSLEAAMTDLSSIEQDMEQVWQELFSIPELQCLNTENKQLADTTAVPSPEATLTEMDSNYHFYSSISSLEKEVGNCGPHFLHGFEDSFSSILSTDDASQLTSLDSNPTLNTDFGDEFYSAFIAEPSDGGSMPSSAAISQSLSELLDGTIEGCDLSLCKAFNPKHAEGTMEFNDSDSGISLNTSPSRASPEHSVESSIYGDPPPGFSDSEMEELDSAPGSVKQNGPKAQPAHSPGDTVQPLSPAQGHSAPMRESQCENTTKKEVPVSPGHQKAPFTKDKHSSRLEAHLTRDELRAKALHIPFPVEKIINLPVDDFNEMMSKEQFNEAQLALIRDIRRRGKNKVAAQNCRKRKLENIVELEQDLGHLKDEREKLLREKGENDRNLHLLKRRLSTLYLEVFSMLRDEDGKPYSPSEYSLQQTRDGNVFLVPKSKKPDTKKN

[2] = molecular target: T1, Nuclear factor erythroid 2-related factor 2 (Mus musculus); test: Activation of Nrf2 in mouse Hepa1c1c7 cells assessed as increase in NQO1 activity at 1.25 uM; type: cell-based; details: filed as activator
[3] = molecular target: T1, Nuclear factor erythroid 2-related factor 2 (Mus musculus); test: Activation of Nrf2 in mouse Hepa1c1c7 cells assessed as increase in NQO1 activity at 0.313 uM; type: cell-based; details: filed as activator
[4] = molecular target: T1, Nuclear factor erythroid 2-related factor 2 (Mus musculus); test: Activation of Nrf2 in mouse Hepa1c1c7 cells assessed as increase in NQO1 activity at 2.5 uM; type: cell-based; details: filed as activator
[5] = molecular target: T1, Nuclear factor erythroid 2-related factor 2 (Mus musculus); test: Activation of Nrf2 in mouse Hepa1c1c7 cells assessed as increase in NQO1 activity at 10 uM; type: cell-based; details: filed as activator
[6] = molecular target: T1, Nuclear factor erythroid 2-related factor 2 (Mus musculus); test: Activation of Nrf2 in mouse Hepa1c1c7 cells assessed as increase in NQO1 activity at 40 uM; type: cell-based; details: filed as activator
[7] = molecular target: T1, Nuclear factor erythroid 2-related factor 2 (Mus musculus); test: Activation of Nrf2 in mouse Hepa1c1c7 cells assessed as concentration required to double induction to increase in NQO1 activity; type: cell-based; details: filed as activator
[8] = molecular target: T1, Nuclear factor erythroid 2-related factor 2 (Mus musculus); test: Activation of Nrf2 in mouse Hepa1c1c7 cells assessed as increase in NQO1 activity at 20 uM; type: cell-based; details: filed as activator
[9] = molecular target: T1, Nuclear factor erythroid 2-related factor 2 (Mus musculus); test: Activation of Nrf2 in mouse Hepa1c1c7 cells assessed as increase in NQO1 activity at 5 uM; type: cell-based; details: filed as activator
[10] = Antioxidant activity assessed as DPPH radical scavenging activity; type: functional
[11] = tested on: Mus musculus; test: Radioprotective activity in albino mouse assessed as ROS level at 50 mg/kg, ip administered for 5 days and on day 5 irradiated with gamma radiation and measured after 3 days (reference value: 39 %); type: functional; details: time 8 day
[12] = tested on: Mus musculus; test: Radioprotective activity in albino mouse assessed as Nrf2 level at 50 mg/kg, ip administered for 5 days and on day 5 irradiated with gamma radiation and measured after 3 days (reference value: 23 %); type: functional; details: time 8 day
[13] = molecular target: T1, Nuclear factor erythroid 2-related factor 2 (Mus musculus); test: Activation of Nrf2 in mouse Hepa1c1c7 cells assessed as increase in NQO1 activity at 3.125 uM; type: cell-based; details: filed as activator
[14] = tested on: Mus musculus; test: Radioprotective activity in albino mouse assessed as NQO1 level at 50 mg/kg, ip administered for 5 days and on day 5 irradiated with gamma radiation and measured after 3 days (reference value: 192 %); type: functional; details: time 8 day
[15] = tested on: Mus musculus; test: Radioprotective activity in albino mouse assessed as MDA level at 50 mg/kg, ip administered for 5 days and on day 5 irradiated with gamma radiation and measured after 3 days (reference value: 86 %); type: functional; details: time 8 day
[16] = Toxicity in albino mouse assessed as effect on liver weight at 50 mg/kg, ip administered for 5 days; type: organism-based; details: in vivo, 120 h, time 5 day
[17] = tested on: Mus musculus; test: Radioprotective activity in albino mouse assessed as WBC level at 50 mg/kg, ip administered for 5 days and on day 5 irradiated with gamma radiation and measured after 3 days (reference value: 0.40 +/- 0.03 10^3/UL); type: functional; details: time 8 day
[18] = tested on: Mus musculus; test: Radioprotective activity in albino mouse assessed as effect on body weight at 50 mg/kg, ip administered for 5 days and on day 5 irradiated with gamma radiation and measured after 3 days; type: functional, organism-based; details: time 8.0 day
[19] = Effect on RBC level in albino mouse at 50 mg/kg, ip administered for 5 days (reference value: 7.17 +/- 0.15 10^6/UL); type: functional; details: time 5 day
[20] = tested on: Mus musculus; test: Radioprotective activity in albino mouse assessed as HGB level at 50 mg/kg, ip administered for 5 days and on day 5 irradiated with gamma radiation and measured after 3 days (reference value: 7.98 +/- 0.24 g/dL); type: functional; details: time 8 day
[21] = Effect on PLT level in albino mouse at 50 mg/kg, ip administered for 5 days (reference value: 1135 +/- 91.52 10^3/UL); type: functional; details: time 5 day
[22] = molecular target: T1, Nuclear factor erythroid 2-related factor 2 (Mus musculus); test: Activation of Nrf2 in mouse Hepa1c1c7 cells assessed as increase in NQO1 activity at 25 uM; type: cell-based; details: filed as activator
[23] = molecular target: T1, Nuclear factor erythroid 2-related factor 2 (Mus musculus); test: Activation of Nrf2 in mouse Hepa1c1c7 cells assessed as increase in NQO1 activity at 0.8 uM; type: cell-based; details: filed as activator
[24] = Toxicity in albino mouse assessed as lethality; details: in vivo
[25] = Effect on HCT level in albino mouse at 50 mg/kg, ip administered for 5 days (reference value: 33.45 +/- 1.82 %); type: functional; details: time 5 day
[26] = molecular target: T1, Nuclear factor erythroid 2-related factor 2 (Mus musculus); test: Activation of Nrf2 in mouse Hepa1c1c7 cells assessed as increase in NQO1 activity at 50 uM; type: cell-based; details: filed as activator
[27] = tested on: Mus musculus; test: Radioprotective activity in albino mouse assessed as RBC level at 50 mg/kg, ip administered for 5 days and on day 5 irradiated with gamma radiation and measured after 3 days (reference value: 5.89 +/- 0.27 10^6/UL); type: functional; details: time 8 day
[28] = molecular target: T1, Nuclear factor erythroid 2-related factor 2 (Mus musculus); test: Activation of Nrf2 in mouse Hepa1c1c7 cells assessed as increase in NQO1 activity at 0.4 uM; type: cell-based; details: filed as activator
[29] = molecular target: T1, Nuclear factor erythroid 2-related factor 2 (Mus musculus); test: Activation of Nrf2 in mouse Hepa1c1c7 cells assessed as increase in NQO1 activity at 1.6 uM; type: cell-based; details: filed as activator
[30] = molecular target: T1, Nuclear factor erythroid 2-related factor 2 (Mus musculus); test: Activation of Nrf2 in mouse Hepa1c1c7 cells assessed as increase in NQO1 activity at 12.5 uM; type: cell-based; details: filed as activator
[31] = tested on: Mus musculus; test: Radioprotective activity in albino mouse assessed as HCT level at 50 mg/kg, ip administered for 5 days and on day 5 irradiated with gamma radiation and measured after 3 days (reference value: 23.05 +/- 0.98 %); type: functional; details: time 8 day
[32] = Effect on WBC level in albino mouse at 50 mg/kg, ip administered for 5 days (reference value: 2.54 +/- 0.16 10^3/UL); type: functional; details: time 5 day
[33] = Effect on HGB level in albino mouse at 50 mg/kg, ip administered for 5 days (reference value: 10.75 +/- 0.63 g/dL); type: functional; details: time 5 day
[34] = molecular target: T1, Nuclear factor erythroid 2-related factor 2 (Mus musculus); test: Activation of Nrf2 in mouse Hepa1c1c7 cells assessed as increase in NQO1 activity at 6.25 uM; type: cell-based; details: filed as activator
[35] = tested on: Mus musculus; test: Radioprotective activity in albino mouse assessed as organism survival rate at 50 mg/kg, ip administered for 5 days and on day 5 irradiated with gamma radiation and measured after 3 days; type: functional, organism-based; details: time 8.0 day
[36] = tested on: Mus musculus; test: Radioprotective activity in albino mouse assessed as PLT level at 50 mg/kg, ip administered for 5 days and on day 5 irradiated with gamma radiation and measured after 3 days (reference value: 500.3 +/- 49.73 10^3/UL); type: functional; details: time 8 day
[37] = molecular target: T1, Nuclear factor erythroid 2-related factor 2 (Mus musculus); test: Activation of Nrf2 in mouse Hepa1c1c7 cells assessed as increase in NQO1 activity at 0.2 uM; type: cell-based; details: filed as activator
[38] = molecular target: T1, Nuclear factor erythroid 2-related factor 2 (Mus musculus); test: Activation of Nrf2 in mouse Hepa1c1c7 cells assessed as increase in NQO1 activity at 0.5 uM; type: cell-based; details: filed as activator
[39] = molecular target: T1, Nuclear factor erythroid 2-related factor 2 (Mus musculus); test: Activation of Nrf2 in mouse Hepa1c1c7 cells assessed as increase in NQO1 activity at 3.75 uM; type: cell-based; details: filed as activator
[40] = molecular target: T1, Nuclear factor erythroid 2-related factor 2 (Mus musculus); test: Activation of Nrf2 in mouse Hepa1c1c7 cells assessed as increase in NQO1 activity at 7.5 uM; type: cell-based; details: filed as activator
[41] = molecular target: T1, Nuclear factor erythroid 2-related factor 2 (Mus musculus); test: Activation of Nrf2 in mouse Hepa1c1c7 cells assessed as increase in NQO1 activity at 1.9 uM; type: cell-based; details: filed as activator
[42] = molecular target: T1, Nuclear factor erythroid 2-related factor 2 (Mus musculus); test: Activation of Nrf2 in mouse Hepa1c1c7 cells assessed as increase in NQO1 activity at 30 uM; type: cell-based; details: filed as activator
[43] = molecular target: T1, Nuclear factor erythroid 2-related factor 2 (Mus musculus); test: Activation of Nrf2 in mouse Hepa1c1c7 cells assessed as increase in NQO1 activity at 0.9 uM; type: cell-based; details: filed as activator
[44] = molecular target: T1, Nuclear factor erythroid 2-related factor 2 (Mus musculus); test: Activation of Nrf2 in mouse Hepa1c1c7 cells assessed as increase in NQO1 activity at 15 uM; type: cell-based; details: filed as activator

Activity [1]: 1.01 | Activity [2]: 0.99 | Activity [3]: 1.02 | Activity [4]: 0.94 | Activity [5]: 1.15 | Activity [6]: 1.93 | Activity [7]: Dose-Dependent Effect | CD [7]: 40 µM | Activity [8]: 1.42 | Activity [9]: 1.02 | IC50 [10]: 49.3 µM
Structure (SMILES): NS(=O)(=O)c1ccc(-n2c(SCC(=O)Nc3ccc(Br)cc3)nc3c(I)cc(I)cc3c2=O)cc1

Structure (SMILES): NS(=O)(=O)c1ccc(-n2c(SCC(=O)Nc3cccnc3Cl)nc3c(I)cc(I)cc3c2=O)cc1
Activity [11]: 23% | Activity [12]: 15% | Activity [13]: 1.09 | Activity [14]: 37% | Activity [15]: 32% | Activity [16]: Non-Toxic | Activity [17]: 1.34 10^3 /uL | Activity [18]: Active | Activity [19]: 6.13 10^6 /uL | Activity [20]: 9.9 g/dL | Activity [21]: 1030 10^3 /uL | Activity [22]: 2.13 | CD [7]: 25 µM | Activity [23]: 0.98 | LD50 [24]: 500 mg/kg | Activity [25]: 26.86% | Activity [26]: 2.65 | Activity [27]: 6.37 10^6 /uL | Activity [28]: 0.99 | Activity [29]: 1 | Activity [30]: 1.38 | Activity [31]: 25.83% | Activity [32]: 2.08 10^3 /uL | IC50 [10]: 28 µM | Activity [33]: 8.54 g/dL | Activity [34]: 1.17 | Activity [35]: Active | Activity [36]: 956.8 10^3 /uL

Activity [37]: 1.01 | Activity [38]: 1 | Activity [39]: 1.09 | Activity [40]: 1.08 | Activity [41]: 1.02 | Activity [42]: 1.17 | Activity [43]: 1 | Activity [44]: 1.13 | IC50 [10]: 37.8 µM
Structure (SMILES): NS(=O)(=O)c1ccc(-n2c(SCC(=O)Nc3ccc(Br)cc3Br)nc3c(I)cc(I)cc3c2=O)cc1

IC50 [10]: 128 µM
Structure (SMILES): O=C1O[C@H]([C@@H](O)CO)C(O)=C1O [ASCORBIC ACID]
